Marks after values point to notes of the source that are not given here.
Legend:
[1] = system: Staphylococcus agalactiae; conditions: ex-vivo; cited from earlier work
[2] = system: methicillin-resistant Staphylococcus epidermis (MRSE); conditions: ex-vivo; cited from earlier work
[3] = system: glycopeptide intermediate Staphylococcus aureus (GISA); conditions: ex-vivo; cited from earlier work
[4] = Impact of ticagrelor particle size on dissolution; format: physicochemical
Procedure: In a further example the impact of particle size on solubility was tested. Two different particle size diameters for the ticagrelor active ingredient were screened, 5.5 and 15 micrometers. The pH and osmolality were not affected.

[5] = Solubilization of ticagrelor in unbuffered cyclodextrin stock solutions in milli Q water, appearance on shaking platform; format: physicochemical;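 further: plus means clear and fully dissolved while plus-minus means clear solution with precipitation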
Procedure: In a first example two different types of cyclodextrin were used and compared for the solubilization of ticagrelor. An unbuffered stock solution of HPBCD or SBECD was made in water at the target concentrations of 20 w/w %, 25 w/w %, 30 w/w %, 35 w/w % and 40 w/w %. Ticagrelor was added slowly under vortex. Ticagrelor was used at concentrations of 5, 10 or 14 mg/ml in milli Q water. The ticagrelor-cyclodextrin solutions were left on a shaking platform. No sonification or heat was applied.

[6] = particle distribution D90 5.5 μm, micronized
[7] = particle distribution D90 15 μm, unmicronized

For `CCCSc1nc(N[C@@H]2C[C@H]2c2ccc(F)c(F)c2)c2nnn([C@@H]3C[C@H](OCCO)[C@@H](O)[C@H]3O)c2n1` [ticagrelor, (1S,2S,3R,5S)-3-{7-[(1R,2S)-2-(3,4-difluorophenyl)cyclopropylamino]5-(propylthio)-3H-(1,2,3)triazolo (4,5-D)pyrimidin-3-yl}-5-(2 hydroxyethoxy) cyclopentane-1,2-diol], the minimal bactericidal concentration [1] is listed as 40 microgram/ml, the minimal bactericidal concentration [2] is listed as 30 microgram/ml and the minimal bactericidal concentration [3] is listed as 20 microgram/ml. The Dissolution time [4, 6] was 33 min, the Osmolality [4, 6] was 751 mOsm/kg and the pH [4, 6] was 7.68. It also gave a Dissolution time [4, 7] of 125 min, an Osmolality [4, 7] of 753 mOsm/kg and a pH [4, 7] of 7.70. The Appearance in cyclodextrin ([5]; HPβCD 20% w/w, ticagrelor 5 mg/ml, after 5 min of shaking) was “− (translucent solution with precipitation)”, the Appearance in cyclodextrin ([5]; HPβCD 20% w/w, ticagrelor 5 mg/ml, after 30 min of shaking) was “+/−” and the Appearance in cyclodextrin ([5]; HPβCD 20% w/w, ticagrelor 5 mg/ml, after 60 min of shaking) was “+/−”. For the same compound, the Appearance in cyclodextrin ([5]; HPβCD 20% w/w, ticagrelor 5 mg/ml, after 3 h of shaking) was “+/−”, the Appearance in cyclodextrin ([5]; HPβCD 20% w/w, ticagrelor 5 mg/ml, after overnight shaking) was “− (translucent solution with precipitation)” and the Appearance in cyclodextrin ([5]; HPβCD 20% w/w, ticagrelor 10 mg/ml, after 5 min of shaking) was “− (translucent solution with precipitation)”. The Appearance in cyclodextrin ([5]; HPβCD 20% w/w, ticagrelor 10 mg/ml, after 30 min of shaking) was “− (translucent solution with precipitation)”, the Appearance in cyclodextrin ([5]; HPβCD 20% w/w, ticagrelor 10 mg/ml, after 60 min of shaking) was “− (translucent solution with precipitation)” and the Appearance in cyclodextrin ([5]; HPβCD 20% w/w, ticagrelor 10 mg/ml, after 3 h of shaking) was “− (translucent solution with precipitation)”. The Appearance in cyclodextrin ([5]; HPβCD 20% w/w, ticagrelor 10 mg/ml, after overnight shaking) was “− (translucent solution with precipitation)”, the Appearance in cyclodextrin ([5]; HPβCD 20% w/w, ticagrelor 14 mg/ml, after 5 min of shaking) was “− (translucent solution with precipitation)” and the Appearance in cyclodextrin ([5]; HPβCD 20% w/w, ticagrelor 14 mg/ml, after 30 min of shaking) was “− (translucent solution with precipitation)”. The Appearance in cyclodextrin ([5]; HPβCD 20% w/w, ticagrelor 14 mg/ml, after 60 min of shaking) was “− (translucent solution with precipitation)”, the Appearance in cyclodextrin ([5]; HPβCD 20% w/w, ticagrelor 14 mg/ml, after 3 h of shaking) was “− (translucent solution with precipitation)” and the Appearance in cyclodextrin ([5]; HPβCD 20% w/w, ticagrelor 14 mg/ml, after overnight shaking) was “− (translucent solution with precipitation)”. The Appearance in cyclodextrin ([5]; HPβCD 25% w/w, ticagrelor 5 mg/ml, after 5 min of shaking) was “− (translucent solution with precipitation)”, the Appearance in cyclodextrin ([5]; HPβCD 25% w/w, ticagrelor 5 mg/ml, after 30 min of shaking) was “+/−” and the Appearance in cyclodextrin ([5]; HPβCD 25% w/w, ticagrelor 5 mg/ml, after 60 min of shaking) was “+/−”. The Appearance in cyclodextrin ([5]; HPβCD 25% w/w, ticagrelor 5 mg/ml, after 3 h of shaking) was “+/−”, the Appearance in cyclodextrin ([5]; HPβCD 25% w/w, ticagrelor 5 mg/ml, after overnight shaking, after one hour of sonication) was “+* (clear, appeared completely dissolved)” and the Appearance in cyclodextrin ([5]; HPβCD 25% w/w, ticagrelor 10 mg/ml, after 5 min of shaking) was “− (translucent solution with precipitation)”. For the same compound, the Appearance in cyclodextrin ([5]; HPβCD 25% w/w, ticagrelor 10 mg/ml, after 30 min of shaking) was “− (translucent solution with precipitation)”, the Appearance in cyclodextrin ([5]; HPβCD 25% w/w, ticagrelor 10 mg/ml, after 60 min of shaking) was “− (translucent solution with precipitation)” and the Appearance in cyclodextrin ([5]; HPβCD 25% w/w, ticagrelor 10 mg/ml, after 3 h of shaking) was “− (translucent solution with precipitation)”. The Appearance in cyclodextrin ([5]; HPβCD 25% w/w, ticagrelor 10 mg/ml, after overnight shaking) was “− (translucent solution with precipitation)”, the Appearance in cyclodextrin ([5]; HPβCD 25% w/w, ticagrelor 14 mg/ml, after 5 min of shaking) was “− (translucent solution with precipitation)” and the Appearance in cyclodextrin ([5]; HPβCD 25% w/w, ticagrelor 14 mg/ml, after 30 min of shaking) was “− (translucent solution with precipitation)”. The Appearance in cyclodextrin ([5]; HPβCD 25% w/w, ticagrelor 14 mg/ml, after 60 min of shaking) was “− (translucent solution with precipitation)”, the Appearance in cyclodextrin ([5]; HPβCD 25% w/w, ticagrelor 14 mg/ml, after 3 h of shaking) was “− (translucent solution with precipitation)” and the Appearance in cyclodextrin ([5]; HPβCD 25% w/w, ticagrelor 14 mg/ml, after overnight shaking) was “− (translucent solution with precipitation)”. For the same compound, the Appearance in cyclodextrin ([5]; HPβCD 30% w/w, ticagrelor 5 mg/ml, after 5 min of shaking) was “− (translucent solution with precipitation)”, the Appearance in cyclodextrin ([5]; HPβCD 30% w/w, ticagrelor 5 mg/ml, after 30 min of shaking) was “+/−” and the Appearance in cyclodextrin ([5]; HPβCD 30% w/w, ticagrelor 5 mg/ml, after 60 min of shaking) was “+/−”. For the same compound, the Appearance in cyclodextrin ([5]; HPβCD 30% w/w, ticagrelor 5 mg/ml, after 3 h of shaking) was “+/−”, the Appearance in cyclodextrin ([5]; HPβCD 30% w/w, ticagrelor 5 mg/ml, after overnight shaking) was “+ (clear, appeared completely dissolved)” and the Appearance in cyclodextrin ([5]; HPβCD 30% w/w, ticagrelor 10 mg/ml, after 5 min of shaking) was “− (translucent solution with precipitation)”. For the same compound, the Appearance in cyclodextrin ([5]; HPβCD 30% w/w, ticagrelor 10 mg/ml, after 30 min of shaking) was “− (translucent solution with precipitation)”, the Appearance in cyclodextrin ([5]; HPβCD 30% w/w, ticagrelor 10 mg/ml, after 60 min of shaking) was “− (translucent solution with precipitation)” and the Appearance in cyclodextrin ([5]; HPβCD 30% w/w, ticagrelor 10 mg/ml, after 3 h of shaking) was “− (translucent solution with precipitation)”. For the same compound, the Appearance in cyclodextrin ([5]; HPβCD 30% w/w, ticagrelor 10 mg/ml, after overnight shaking) was “− (translucent solution with precipitation)”, the Appearance in cyclodextrin ([5]; HPβCD 30% w/w, ticagrelor 14 mg/ml, after 5 min of shaking) was “− (translucent solution with precipitation)” and the Appearance in cyclodextrin ([5]; HPβCD 30% w/w, ticagrelor 14 mg/ml, after 30 min of shaking) was “− (translucent solution with precipitation)”. The Appearance in cyclodextrin ([5]; HPβCD 30% w/w, ticagrelor 14 mg/ml, after 60 min of shaking) was “− (translucent solution with precipitation)”, the Appearance in cyclodextrin ([5]; HPβCD 30% w/w, ticagrelor 14 mg/ml, after 3 h of shaking) was “− (translucent solution with precipitation)” and the Appearance in cyclodextrin ([5]; HPβCD 30% w/w, ticagrelor 14 mg/ml, after overnight shaking) was “− (translucent solution with precipitation)”. The Appearance in cyclodextrin ([5]; HPβCD 35% w/w, ticagrelor 5 mg/ml, after 5 min of shaking) was “+/−”, the Appearance in cyclodextrin ([5]; HPβCD 35% w/w, ticagrelor 5 mg/ml, after 30 min of shaking) was “+/−” and the Appearance in cyclodextrin ([5]; HPβCD 35% w/w, ticagrelor 5 mg/ml, after 60 min of shaking) was “+/−”. The Appearance in cyclodextrin ([5]; HPβCD 35% w/w, ticagrelor 5 mg/ml, after 3 h of shaking) was “+/−”, the Appearance in cyclodextrin ([5]; HPβCD 35% w/w, ticagrelor 5 mg/ml, after overnight shaking) was “+ (clear, appeared completely dissolved)” and the Appearance in cyclodextrin ([5]; HPβCD 35% w/w, ticagrelor 10 mg/ml, after 5 min of shaking) was “− (translucent solution with precipitation)”. The Appearance in cyclodextrin ([5]; HPβCD 35% w/w, ticagrelor 10 mg/ml, after 30 min of shaking) was “+/−” and the Appearance in cyclodextrin ([5]; HPβCD 35% w/w, ticagrelor 10 mg/ml, after 60 min of shaking) was “+/−”.

Source: US20260007599A1, “TICAGRELOR IV FORMULATIONS FOR USE IN THE TREATMENT OF GRAM-POSITIVE BACTEREMIA” (Hyloris Developments SA, priority 2023, published 2026)
